In one series the test system is HepG2 cells. The experiment in a line: MTT antiproliferative assay, HepG2. The class given is cell-based, human. The settings on record: Homo sapiens, HepG2, 48 h, MTT, mean ± SD, n=3; for inhibition at 100 µM: read-out: % Growth Inhibition at 100 μM HepG2. Here is the method: (§1) The antiproliferative activity of the target compounds against a normal L02 cell line and the three different human cancer cell lines viz. colorectal (HCT-116), liver (BEL-7402) and liver (HepG2) were evaluated using a standard MTT-based colorimetric assay. All cell lines were obtained from the Key Laboratory of Natural Resources and Functional Molecules of the Changbai Mountain (Yanbian University, Jilin, China) and maintained in Dulbecco’s modified Eagle’s medium (DMEM) and RPMI Media 1640 (RPMI1640), supplemented with 10% fetal bovine serum (FBS) at 37 °C in a humidified atmosphere containing 5% CO2.
(§2) Cells were plated in 96-well plates at appropriate densities to ensure exponential growth throughout the experimental period (9 × 10^3 cells per well) and then allowed to adhere for 24 h. Cells were then treated for 48 h with four serial concentrations (1, 10, 50 and 100 µM) of each compound. 5-fluorouracil (5-FU) was used as a positive control. After 48 h of incubation, 10 µL of MTT solution was added to each well to a final concentration of 2 mg/mL. Plates were then incubated for a further 4 h. After incubation, the MTT solution was removed and 150 µL of DMSO was added to each well for coloration. The plates were shaken vigorously for 10 min at room temperature to ensure complete solubilization. The optical density (OD) was read on a microplate reader (ELx800, BioTek, Highland Park, Winooski, VT, USA) at a wavelength of 492 nm and the data were subsequently analyzed. The percentage of cell growth inhibition was calculated from the following equation: Inhibitory rate (%) = [(1 − (ODtreated-ODblank)/(ODcontrol-ODblank)] × 100.(1)
A general note: Tetrazolium dyes change colour on reduction, which living cells bring about.

Another series deals with HCT-116 cells. The experiment in a line: MTT antiproliferative assay, HCT-116. The series is classed as cell-based, human. The settings on record: Homo sapiens, HCT-116, 48 h, MTT, mean ± SD, n=3; for inhibition at 100 µM: read-out: % Growth Inhibition at 100 μM HCT-116. On the procedure:
as §1, §2

A further series concerns BEL-7402 cells. The series can be described thus: MTT antiproliferative assay, BEL-7402. The settings on record: Homo sapiens, Bel-7402, 48 h, MTT, mean ± SD, n=3; for inhibition at 100 µM: read-out: % Growth Inhibition at 100 μM BEL-7402. The class given is cell-based, human. Here is the method: as §1, §2

A value given as a limit tells only on which side of the number the result lay.

A word on the inhibition: it is the percentage by which the read-out fell short of the control. A word on the melting point: it is the temperature of the solid-liquid transition. As a reminder, the IC50 is the concentration needed to halve the response being measured. Read a low IC50 as greater potency.

For the compound `C[C@@]12CC[C@@H]3[C@@](CC[C@H]4[C@@]3(C)CCC[C@@]4(C)C(=O)OCC(=O)Nc3cccc(Cl)c3)(CC1=O)C2` [Compound 4c, 2-((3-chlorophenyl)amino)-2-oxoethyl(4R,4aS,6aR,9S,11aR,11bS)-4,9,11b-trimethyl-8-oxotetradecahydro-6a,9-methanocyclohepta[a]naphthalene-4-carboxylate], the melting point is 120 to 122 °C. In the series with HepG2 cells, the inhibition at 100 µM was under 10%. Also, the inhibition at 100 µM in the series on HCT-116 cells was found to be 62.3 ± 3.55%. For the same compound, in the series with BEL-7402 cells, the inhibition at 100 µM was determined as 35.7 ± 2.56%.
For the compound `COC(=O)C(NC(=O)C1(C)CCCC2(C)C3CCC4(C)CC3(CCC12)CC4=O)C(C)C` [Compound 3c, Methyl((4R,4aS,6aR,9S,11aR,11bS)-4,9,11b-trimethyl-8-oxotetradecahydro-6a,9-methanocyclohepta[a]naphthalene-4-carbonyl)-L-valinate], the inhibition at 100 µM in the series with HepG2 cells came to 23.9 ± 0.85%; in the series with HCT-116 cells, 54.7 ± 0.59%; in the series with BEL-7402 cells, 66.6 ± 1.9%.
On to `COc1ccc(NC(=O)COC(=O)[C@]2(C)CCC[C@@]3(C)[C@@H]4CC[C@@]5(C)C[C@]4(CC[C@@H]32)CC5=O)cc1` [Compound 4i, 2-((4-methoxyphenyl)amino)-2-oxoethyl(4R,4aS,6aR,9S,11aR,11bS)-4,9,11b-trimethyl-8-oxotetradecahydro-6a,9-methanocyclohepta[a]naphthalene-4-carboxylate], for which the melting point was in the range of 86 to 88 °C. The inhibition at 100 µM with HepG2 cells is under 10%. In addition, the inhibition at 100 µM with HCT-116 cells amounted to 53.1 ± 2.56%. The inhibition at 100 µM with BEL-7402 cells turned out to be 45.6 ± 1.47%.
The corresponding values for `C[C@@]12CC[C@@H]3[C@@](CC[C@H]4[C@@]3(C)CCC[C@@]4(C)C(=O)OCC(=O)Nc3ccccc3Cl)(CC1=O)C2` [Compound 4b, 2-((2-chlorophenyl)amino)-2-oxoethyl(4R,4aS,6aR,9S,11aR,11bS)-4,9,11b-trimethyl-8-oxotetradecahydro-6a,9-methanocyclohepta[a]naphthalene-4-carboxylate] are 107 to 108 °C, under 10%, under 10% and under 10%.
The like results for `C[C@@]12CC[C@@H]3[C@@](CC[C@H]4[C@@]3(C)CCC[C@@]4(C)C(=O)OCC(=O)Nc3ccc(Cl)cc3)(CC1=O)C2` [Compound 4d, 2-((4-chlorophenyl)amino)-2-oxoethyl(4R,4aS,6aR,9S,11aR,11bS)-4,9,11b-trimethyl-8-oxotetradecahydro-6a,9-methanocyclohepta[a]naphthalene-4-carboxylate] were, in that order, 140 to 142 °C, 31.9 ± 1.31%, 56.9 ± 2.35% and 52.9 ± 2.11%.
The corresponding values for `COC(=O)C(Cc1c[nH]c2ccccc12)NC(=O)C1(C)CCCC2(C)C3CCC4(C)CC3(CCC12)CC4=O` [Compound 3d, Methyl((4R,4aS,6aR,9S,11aR,11bS)-4,9,11b-trimethyl-8-oxotetradecahydro-6a,9-methanocyclohepta[a]naphthalene-4-carbonyl)-L-tryptophanate] are 165 to 166 °C, under 10%, 19.7 ± 1.11% and 35.8 ± 2.37%.
In the case of `CCOP(=O)(OCC)C(NC(=O)COC(=O)[C@]1(C)CCC[C@@]2(C)[C@@H]3CC[C@@]4(C)C[C@]3(CC[C@@H]21)CC4=O)c1ccc(Cl)cc1` (stereo partly drawn) [Compound 6b, 2-(((4-chlorophenyl)(diethoxyphosphoryl)methyl)amino)-2-oxoethyl(4R,4aS,6aR,9S,11aR,11bS)-4,9,11b-trimethyl-8-oxotetradecahydro-6a,9-methanocyclohepta[a]naphthalene-4-carboxylate], the melting point fell in the range of 149 to 150 °C. For the same compound, in the series on HepG2 cells, the inhibition at 100 µM came to 40.2 ± 2.56%. In addition, in the series with HCT-116 cells, the inhibition at 100 µM worked out at 50.3 ± 2.31%. Also, in the series with BEL-7402 cells, the inhibition at 100 µM amounted to 50.4 ± 1.63%.
The corresponding values for `C[C@@]12CC[C@@H]3[C@@](CC[C@H]4[C@@]3(C)CCC[C@@]4(C)C(=O)NCCN3CCCC3)(CC1=O)C2` [Compound 1a, (4R,4aS,6aR,9S,11aR,11bS)-4,9,11b-trimethyl-8-oxo-N-(2-(pyrrolidin-1-yl)ethyl)tetradecahydro-6a,9-methanocyclohepta[a]naphthalene-4-carboxamide] are 136 to 137 °C, 66 ± 1.33%, 65.2 ± 2.52% and 87.1 ± 2.37%.
Regarding `O=c1[nH]cc(F)c(=O)[nH]1` [5-FU, 5-fluorouracil, reference compound], the IC50 in the series on HepG2 cells was 23.4 ± 0.37 µM; in the series on HCT-116 cells it was 24.8 ± 2.08 µM; in the series on BEL-7402 cells, 21.3 ± 2.43 µM.
The compound `CCOP(=O)(OCC)C(NC(=O)COC(=O)[C@]1(C)CCC[C@@]2(C)[C@@H]3CC[C@@]4(C)C[C@]3(CC[C@@H]21)CC4=O)c1ccccc1` (stereo partly drawn) [Compound 6a, 2-(((diethoxyphosphoryl)(phenyl)methyl)amino)-2-oxoethyl(4R,4aS,6aR,9S,11aR,11bS)-4,9,11b-trimethyl-8-oxotetradecahydro-6a,9-methanocyclohepta[a]naphthalene-4-carboxylate] gave a melting point of 156 to 157 °C. Besides, in the series with HepG2 cells, the inhibition at 100 µM is 28 ± 0.99%. In addition, the inhibition at 100 µM with HCT-116 cells amounted to 50 ± 2.27%. The inhibition at 100 µM in the series on BEL-7402 cells came to 33.7 ± 0.91%.
The corresponding values for `C[C@@]12CC[C@@H]3[C@@](CC[C@H]4[C@@]3(C)CCC[C@@]4(C)C(=O)OCC(=O)Nc3ccc(F)cc3)(CC1=O)C2` [Compound 4g, 2-((4-fluorophenyl)amino)-2-oxoethyl(4R,4aS,6aR,9S,11aR,11bS)-4,9,11b-trimethyl-8-oxotetradecahydro-6a,9-methanocyclohepta[a]naphthalene-4-carboxylate] are 140 to 141 °C, 39.1 ± 1.13%, 65.6 ± 3.01% and 63 ± 2.13%.
The compound `CN1CCN(C(=O)COC(=O)[C@]2(C)CCC[C@@]3(C)[C@@H]4CC[C@@]5(C)C[C@]4(CC[C@@H]32)CC5=O)CC1` [Compound 2a, 2-(4-methylpiperazin-1-yl)-2-oxoethyl(4R,4aS,6aR,9S,11aR,11bS)-4,9,11b-trimethyl-8-oxotetradecahydro-6a,9-methanocyclohepta[a]naphthalene-4-carboxylate] gave a melting point of 112 to 113 °C. For the same compound, the inhibition at 100 µM in the series with HepG2 cells was determined as 40.6 ± 0.7%. Moreover, the inhibition at 100 µM in the series with HCT-116 cells came out at 62.1 ± 1.02%. For the same compound, in the series with BEL-7402 cells, the inhibition at 100 µM turned out to be 65 ± 2.62%.
The like results for `C[C@@]12CC[C@@H]3[C@@](CC[C@H]4[C@@]3(C)CCC[C@@]4(C)C(=O)OCC(=O)Nc3ccccc3F)(CC1=O)C2` [Compound 4e, 2-((2-fluorophenyl)amino)-2-oxoethyl(4R,4aS,6aR,9S,11aR,11bS)-4,9,11b-trimethyl-8-oxotetradecahydro-6a,9-methanocyclohepta[a]naphthalene-4-carboxylate] were, in that order, 168 to 169 °C, under 10%, 27.9 ± 0.44% and 38.7 ± 1.52%.

Values taken from paper PMC6337650 (Molecules, 2018).
